Consider two compounds from patent EP4813463A2, “TYK2 INHIBITORS AND COMPOSITIONS AND METHODS THEREOF” (Lynk Pharmaceuticals Co. Ltd., priority 2023, dated 2024).

For series [1], the system named is IFNa pSTAT1. Kind of series: Phosphorylation of STAT1 inhibition in CCF-STTG1 cells by Jess. The series is classed as cell-based. Particulars: Homo sapiens, 0.5 h; CCF-STTG1 astrocyte cells, IFNα induction 30 mins, Jess western; read-out: Jess_CCF-STTG1 IC50 (IFNa pSTAT1). On the procedure:
Seeding HMC3 cells into 12-well plate and incubate overnight. Pre-stimulation with recombinant human IFNα (Sino biological, H08Y), treat cells with compound with different concentration for 1hr. After compound treatment, stimulate HMC3 cells with 50ng/mL hINFα for another 1 hour (for CCF-STTG1 cells IFNα induction time is 30 mins). And then wash cells with DPBS once gently and lyse cells with pre-cooled RIPA buffer (Sigma, R0278-500ML) for 30min on ice to harvest cells. Centrifuge cell lysate for 20 mins at 12000rpm with freezer centrifuge (Thermo Scientific, Heraeus Fresco 21) to extract protein. Prepare samples with Jess Simple Wes kit (SM-WO04) and then run western blot on Jess simple western system (Protein simple, JS-4631). Collect data and analyzed with GraphPad Prism.

A further series concerns Caco-2 cell lines. The series is described as follows: Caco-2 cell permeability. The series is classed as in vitro ADME. Particulars: Caco-2; result in words.
Series [2] is described as follows: Brain pharmacokinetic studies in dogs. Particulars: for AUC: AUC0-4h. The series is classed as in vivo, Beagle dogs. On the procedure: Pharmacokinetic profiles of test articles were evaluated in Beagle dogs. Different kinds of formulations were designed to ensure test articles fully dissolved and wouldn't precipitate in 1:10 SGF or FaSSIF dilution. The animal was restrained manually at the designated time points, approximately 500 µL of blood sample was collected via cephalic vein into K2EDTA tubes. The blood samples were maintained in wet ice first and centrifuged to obtain plasma (2000g, 4°C, 5 min) within 15 minutes post sampling. The animal was euthanized with pure […] inhalation. Shave the hair on the back of head and neck, and clean the skin of the area with iodine and 75% ethanol. Inject about 4-5 L saline from carotid artery for perfusion. Brain was collected after the perfusion fluid (saline) was gradually clarified. Dry the tissue on filtrate paper on ice, and then weigh the brain tissue and store at -70°C for later analysis. […] Table 15. Systemic Pharmacokinetic Parameters in Beagle Dogs

Series [3] has as its system IFNa pSTAT1. Kind of series: Phosphorylation of STAT1 inhibition in HMC3 cells with HTRF assay. Particulars: Homo sapiens, HMC3 microglia cells, 50ng/mL hINFα 1 hour, read-out: HTRF_HMC3 IC 50 (IFNa pSTAT1). The series is classed as cell-based. On the procedure:
Seeding HMC3 cells into 96-well plate and incubate overnight. Pre-stimulation with recombinant human IFNα (Sino biological, H08Y), treat cells with compound with different concentration for 1hr. After compound treatment, stimulate cells with 50ng/mL hINFα for another 1 hour (for CCF-STTG1 cells IFNα induction time is 30 mins). After compound treatment and cytokine stimulation, dump old medium and lyse cells with supplemented lysis buffer provided by the HTRF kit (Revvity, 63ADK026PEG) for 30 min at room temperature under shaking. After homogenization by pipetting up and down, transfer 16 µL of cell lysate from the 96-well cell-culture plate to a small volume white 384-well plate, and then add 4 µL of pre-mixed two ready-to-use antibody working solution into each wells. Cover the plate with a plate sealer and incubate it overnight at room temperature. Read the fluorescence emission at two different wavelengths (665nm and 620nm) on microplate reader (Molecular Device, SpectraMax i3X). Collect data and analyzed with GraphPad Prism.
(In general: TR-FRET usually uses a lanthanide donor and a delayed reading to cut background.)

Each structure is given as a SMILES string. Like-named read-outs stand apart in the source and are kept apart here.

Take `COC(=O)c1cnc(NC(=O)C2CC2)cc1Nc1nn(C)c2ccc([C@H](OC)C(F)(F)F)c(OC)c12` [Example 45B, Methyl (S)-6-(cyclopropanecarboxamido)-4-((4-methoxy-1-methyl-5-(2,2,2-trifluoro-1-methoxyethyl)-1H-indazol-3-yl)amino)nicotinate]: the IC50 in the series with IFNa pSTAT1 [1] was found to be 3.5 nM. In addition, in the series on Caco-2 cell lines, the “efflux ratio compared with the amide compounds 21,23,25,33,49A and BMS986165” value is recorded as “lower efflux ratio numbers”. The “AUC” value in series [2] (brain, Beagle dogs, iv, 2 mg/kg, solution) amounted to 1963 ng·h/g; in series [2] (dog, systemic (plasma), Beagle dogs, iv, 2 mg/kg, solution, read-out: AUC) it was 1760 ng·h/mL. The Kp in series [2] (dog, brain, Beagle dogs, iv, 2 mg/kg, solution, read-out: Brain AUC/Systemic AUC) came to 1.12. Further, the “brain exposure in Dogs” value in series [2] (result in words) is “good brain exposure”.
Consider `COC(=O)c1cnc(NC(=O)C2CC2)cc1Nc1nn(C)c2ccc([C@H](O)C(F)(F)F)c(OC)c12` [Example 48A, Methyl (S)-6-(cyclopropanecarboxamido)-4-((4-methoxy-1-methyl-5-(2,2,2-trifluoro-1-hydroxyethyl)-1H-indazol-3-yl)amino)nicotinate], for which the IC50 is below 0.061 nM in the series on IFNa pSTAT1 [3] and 0.74 nM with IFNa pSTAT1 [1]. For the same compound, in the series on Caco-2 cell lines, the “efflux ratio compared with the amide compounds 21,23,25,33,49A and BMS986165” value was “lower efflux ratio numbers”.
